Measurements reported in US6924251B1, “Substituted benzoylcyclohexandiones” (Bayer Aktiengesellschaft, priority 1998, dated 2005).

Columns and labels:
Maize [1] = test: Post emergence test/greenhouse; assay type: in vivo; details: after three weeks
Description: (§1) • Solvent: 5 parts by weight of acetone • Emulsifier: 1 part by weight of alkylaryl polyglycol ether
(§2) To produce a suitable preparation of active compound, 1 part by weight of active compound is mixed with the stated amount of solvent, the stated amount of emulsifier is added and the concentrate is diluted with water to the desired concentration.
(§3) Test plants which have a height of 5-15 cm are sprayed with the preparation of active compound in such a way that the particular amounts of active compound desired are applied per unit area. The concentration of the spray liquor is chosen so that the particular amounts of active compound desired are applied in 1000 1 of water/ha.
(§4) After three weeks, the degree of damage to the plants is assesssed in % damage in comparison to the development of the untreated control.

Sinapis = test: Post emergence test/greenhouse; assay type: in vivo; details: after three weeks
Description: as §1, §2, §3, §4

Amaranthus = test: Post emergence test/greenhouse; assay type: in vivo; details: after three weeks
Description: as §1, §2, §3, §4

weeds [2] = test: Post-emergence test, activity against weeds; assay type: in vivo
Description: as §1, §2, §3, §4

Cyperus = test: Pre-emergence test/greenhouse; assay type: in vivo; details: after three weeks
Description: as §1, §2
(§5) Seeds of the test plants are sown in normal soil. After approximately 24 hours, the soil is sprayed with the preparation of active compound such that the particular amount of active compound desired is applied per unit area. The concentration of the spray liquor is chosen so that the particular amount of active compound desired is applied in 1000 liters of water per hectare.
as §4

Maize [3] = test: Pre-emergence test/greenhouse; assay type: in vivo; details: 500 g ai./ha, after three weeks
Description: as §1, §2, §5, §4

Abutilon = test: Pre-emergence test/greenhouse; assay type: in vivo; details: after three weeks
Description: as §1, §2, §5, §4

weeds [4] = test: Pre-emergence test, activity against weeds; assay type: in vivo
Description: as §1, §2, §5, §4

[5] = logP determination by HPLC (reversed-phase C18), EEC Directive 79/831 Annex V.A8; details: reversed-phase C18 HPLC column

SMILES	% damage Maize (Maize [1]; 500 g ai./ha) [%]	% damage Sinapis (Sinapis; 500 g ai./ha) [%]	% damage Amaranthus (Amaranthus; 500 g ai./ha) [%]	activity against weeds (weeds [2])	% damage Cyperus (Cyperus; 500 g ai./ha) [%]	% damage Maize (Maize [3]) [%]	% damage Abutilon (Abutilon; 500 g ai./ha) [%]	activity against weeds (weeds [4])	chromatographic logP [5]	% damage Cyperus (Cyperus; 1000 g ai./ha) [%]	% damage Abutilon (Abutilon; 1000 g ai./ha) [%]	chromatographic logP ([5]; pH 2)	% damage Maize (Maize [1]; 1000 g ai./ha) [%]	% damage Sinapis (Sinapis; 1000 g ai./ha) [%]	% damage Amaranthus (Amaranthus; 1000 g ai./ha) [%]
CCOn1c(CC)nn(Cc2cc(Br)ccc2C(=O)C2C(=O)CCCC2=O)c1=O [compound 10]	20	80	95	strong activity	100	0	90	strong activity	2.68						
CCOc1nn(Cc2cc(C(F)(F)F)ccc2C(=O)C2C(=O)CCCC2=O)c(=O)n1C [compound 1, 5-ethoxy-4-methyl-2-[2-(2,6-dioxo-cyclohexyl-carbonyl)-5-trifluoromethyl-benzyl]-2,4-dihydro-3H-1,2,4-triazol-3-one]								strong activity		100	100	2.7			
CCOc1nn(Cc2cc(Br)ccc2C(=O)C2C(=O)CCCC2=O)c(=O)n1C [compound 15]				strong activity									0	80	90
